Results reported in the NIST ThermoML archive (doi:10.1021/je030147g).
Numbers after ± are expanded uncertainties.

Legend:
[1] = xn = mol fraction of the nth substance listed; conditions: 101.33 kPa, Liquid
[2] = refractive index (Na D-line) (dimensionless); xn = mol fraction of the nth substance listed; conditions: 101.33 kPa, Liquid

CCCCN(CCCC)CCCC [tributylamine] + CCN(CC)CC
Conditions	mass density, 298.15 K [kg/m3]	mass density, 303.15 K [kg/m3]	mass density, 308.15 K [kg/m3]	refractive index, 298.15 K	refractive index, 303.15 K	refractive index, 308.15 K	speed of sound, 298.15 K [m/s]	viscosity, 298.15 K [mPa·s]	viscosity, 303.15 K [mPa·s]	viscosity, 308.15 K [mPa·s]
[1], x1 = 0.1072	732 ± 0.7	727.3 ± 0.7	722.8 ± 0.8	–	–	–	1143 ± 5	0.433 ± 0.013	0.411 ± 0.012	0.388 ± 0.012
[1], x1 = 0.2039	739.2 ± 0.7	734.6 ± 0.7	730.2 ± 0.8	–	–	–	1160 ± 5	0.491 ± 0.014	0.464 ± 0.013	0.438 ± 0.013
[1], x1 = 0.3083	745.9 ± 0.7	741.4 ± 0.7	737.1 ± 0.8	–	–	–	1179 ± 5	0.567 ± 0.015	0.533 ± 0.015	0.499 ± 0.014
[1], x1 = 0.4066	751.5 ± 0.7	747.2 ± 0.8	742.9 ± 0.8	–	–	–	1196 ± 5	0.643 ± 0.017	0.602 ± 0.016	0.561 ± 0.015
[1], x1 = 0.5029	756.4 ± 0.7	752.2 ± 0.8	747.9 ± 0.8	–	–	–	1210 ± 5	0.719 ± 0.019	0.672 ± 0.018	0.625 ± 0.017
[1], x1 = 0.5905	760.2 ± 0.7	756 ± 0.8	751.8 ± 0.8	–	–	–	1221 ± 5	0.801 ± 0.021	0.746 ± 0.019	0.688 ± 0.018
[1], x1 = 0.6928	763.7 ± 0.8	759.5 ± 0.8	755.4 ± 0.8	–	–	–	1232 ± 5	0.899 ± 0.023	0.833 ± 0.021	0.767 ± 0.02
[1], x1 = 0.7914	767.1 ± 0.8	763 ± 0.8	758.9 ± 0.8	–	–	–	1236 ± 5	1.003 ± 0.025	0.923 ± 0.023	0.844 ± 0.022
[1], x1 = 0.8942	770.6 ± 0.8	766.5 ± 0.8	762.4 ± 0.9	–	–	–	1246 ± 6	1.118 ± 0.028	1.026 ± 0.026	0.934 ± 0.024
[1], x1 = 1	773.9 ± 0.8	769.2 ± 0.8	765.7 ± 0.9	–	–	–	1262 ± 6	1.239 ± 0.03	1.123 ± 0.028	1.028 ± 0.026
[2], x1 = 0.1072	–	–	–	1.4052 ± 0.0012	1.4031 ± 0.0012	1.4012 ± 0.0012	–	–	–	–
[2], x1 = 0.2039	–	–	–	1.4104 ± 0.0012	1.4079 ± 0.0012	1.4054 ± 0.0012	–	–	–	–
[2], x1 = 0.3083	–	–	–	1.4131 ± 0.0012	1.4116 ± 0.0012	1.4102 ± 0.0012	–	–	–	–
[2], x1 = 0.4066	–	–	–	1.4164 ± 0.0012	1.4144 ± 0.0012	1.4122 ± 0.0012	–	–	–	–
[2], x1 = 0.5029	–	–	–	1.4208 ± 0.0012	1.4178 ± 0.0012	1.4148 ± 0.0012	–	–	–	–
[2], x1 = 0.5905	–	–	–	1.4218 ± 0.0013	1.4194 ± 0.0013	1.4169 ± 0.0013	–	–	–	–
[2], x1 = 0.6928	–	–	–	1.4238 ± 0.0013	1.4213 ± 0.0013	1.4189 ± 0.0013	–	–	–	–
[2], x1 = 0.7914	–	–	–	1.4256 ± 0.0013	1.423 ± 0.0013	1.4204 ± 0.0013	–	–	–	–
[2], x1 = 0.8942	–	–	–	1.4265 ± 0.0013	1.4241 ± 0.0013	1.4217 ± 0.0013	–	–	–	–
[2], x1 = 1	–	–	–	1.4276 ± 0.0013	1.4255 ± 0.0013	1.4228 ± 0.0013	–	–	–	–
